The test system of assay [1] is T. cruzi. The experiment in a line: T. cruzi intracellular amastigote (AM) in-vitro screen. The class given is cell-based.
Description: Dividing populations can be cultivated in muscle cells, fibroblasts and macrophages, following infection with trypomastigotes. After the initial infection, there is normally a period of 4-5 days during which the amastigotes divide before transforming, via the epimastigote stage, back to trypomastigotes which escape from the cell. Drug activity is measured during this 4-5 day period. A dividing host cell population, low infection rate, and the presence of trypomastigotes in the overlay can complicate the interpretation of results.
Intracellular amastigote models can use a range of muscle (skeletal and cardiac) and fibroblast (e.g. HeLa, HePa) cell lines, macrophages, and chick embryo cells. […] To overcome the problems of overgrowth of the monolayer and a low percentage of infected cells, often associated with the use of cell lines, irradiated rat L6 myoblasts are used.
Assay [2] deals with T. cruzi. As to the kind of experiment: T. cruzi trypomastigote (TRY) in-vitro screen. The class given is cell-based.
Description: (§3) In-vitro chemotherapy screens have for many years used models involving three stages of the T. cruzi life cycle: • (1) Epimastigote. Dividing populations are easily cultivated in a range of defined and semi-defined media, but are equivalent to a vector stage of the life cycle. • (2) Trypomastigote. These are isolated from a rodent host and can be maintained as a non-dividing population for 24-48 h in media. • (3) Amastigote. Dividing populations can be cultivated in muscle cells, fibroblasts and macrophages, following infection with trypomastigotes. After the initial infection, there is normally a period of 4-5 days during which the amastigotes divide before transforming, via the epimastigote stage, back to trypomastigotes which escape from the cell. Drug activity is measured during this 4-5 day period. A dividing host cell population, low infection rate, and the presence of trypomastigotes in the overlay can complicate the interpretation of results.
The subject of assay [3] is T. cruzi. As to the kind of experiment: T. cruzi mouse model, in-vivo. An excerpt: (§1) In-vitro and in-vivo models were used to test activities of a selection of many compounds. Those activities are summarized in Tables 1-3, showing variation between systems and species. Activities measured in the MP mo and HM mo models have shown the best correlation with results obtained in hamster and mouse models.

The test system of assay [4] is T. cruzi. As to the kind of experiment: T. cruzi epimastigote (EPI) in-vitro screen. The class given is cell-based.
Description: as §3
In assay [5] the test system is L donovani. As to the kind of experiment: Leishmania mouse/hamster models, in-vivo. Further: key: - no/poor activity,; + fair/moderate activity,; ++ good/excellent activity. The settings on record: Ld.
Description: as §1

Assay [6] has as its system L major/L mexicana. As to the kind of experiment: Amastigotes (AM) in mouse or human macrophages (mos), in-vitro. The class given is cell-based. The settings on record: Lm., Amastigote.
Description: (§2) Amastigotes of Leishmania can be cultivated in a wide range of mammalian cells, some of which may be used in in-vitro screens. These include (1) a Sticker dog sarcoma (fibroblast) cell line, (2) transformed rodent macrophage cell lines, (3) primary isolated mouse peritoneal macrophages (MP mo), and (4) human monocyte-derived macrophages (HM mo). The methods are similar for all models. Amastigote or promastigote infected cells are maintained in a medium containing the drug for 4-7 days, at 37 C for L. donovani and 33-35 C for L. major and L. mexicana. Drug activity is then assessed by counting (I) the number of infected host cells and/or (II) the number of amastigotes/100 host cells.
as §1

Assay [7] relates to L donovani. The assay is described as above. The class given is cell-based. The settings on record: Ld., Amastigote.
Description: as §2, §1

For assay [8], the system named is L major/L mexicana. The experiment in a line: Amastigote-promastigote (AM-PRO) transformation, in-vitro. The class given is cell-based. The settings on record: Lm.

3 molecules from patent publication EP0462621A2, “Use of particular compounds for manufacture of pharmaceutical formulations for treatment against various parasites, mycoplasmas, other indications and other infections” (Prendergast, Patrick Thomas, priority 1990, dated 1991) can be followed below.

Consider `O=C(Cn1ccnc1[N+](=O)[O-])NCc1ccccc1` [Benznidazole, benznidazole, reference compound], for which the “activity, intracellular AM” value in assay [1] (T. cruzi strain Sonya) and in assay [1] (T. cruzi strain Y) was “++(Y,Sonya)” each time. In addition, the “activity, TRY” value in assay [2] (T. cruzi strain Sonya) and in assay [2] (T. cruzi strain Y) was “++(Y,Sonya)” in each case. The “activity, mouse model” value is listed as “+” in assay [3] (T. cruzi strain Sonya) and “++” in assay [3] (T. cruzi strain Y). For the same molecule, the “activity, EPI” value is recorded as “++(Y,MR, Sonya)” in assay [4] (T. cruzi strain MR); “++(Y,MR, Sonya)” in assay [4] (T. cruzi strain Sonya); “++(Y,MR, Sonya)” in assay [4] (T. cruzi strain Y).
For the molecule `O.O.O.O.O.O.O.O.O.O=C([O-])[C@@H]1[O][Sb]2([O-])([O][Sb]34([OH])[O][C@H]([C@H](O)CO)[C@H]([O]3)[C@H](C(=O)[O-])[O]4)[O][C@H]([C@H](O)CO)[C@@H]1[O]2.[Na+].[Na+].[Na+]` [Sodium stibogluconate, sodium stibogluconate, reference compound], in assay [5], the “Activity, mouse/ hamster models” value is “+ +”. Moreover, the “Activity, AM in mouse or human mos” value in assay [6] and in assay [7] was “+ +” each time. Also, the “Activity, AM-PRO transform-ation” value in assay [8] is given as “+ +”.
Turning to `CC1CS(=O)(=O)CCN1/N=C/c1ccc([N+](=O)[O-])o1` (stereo not drawn) [Nifurtimox, nifurtimox], the “activity, intracellular AM” value in assay [1] (T. cruzi strain Sonya) is recorded as “++(Y,WBH, Sonya)”; in assay [1] (T. cruzi strain WBH), “++(Y,WBH, Sonya)”; in assay [1] (T. cruzi strain Y), “++(Y,WBH, Sonya)”. Also, the “activity, mouse model” value in assay [3] (T. cruzi strain CL) is “++ and +”; in assay [3] (T. cruzi strain Sonya), “+”; in assay [3] (T. cruzi strain Tu), “+”; in assay [3] (T. cruzi strain WBH), “++”; in assay [3] (T. cruzi strain Y) it was “++ and +”.
